# Data reported in US20230364119A1, “AUTOPHAGY ACTIVATOR” (Resonac Corporation, priority 2020, published 2023).
# How the values were obtained:
# [1] = test system: human neuroblastoma (SH-SY5Y); experiment: Apoptosis suppressing action caused by amyloid β in human neuroblastoma (Hoechst 33342 staining); assay type: cell-based
# Procedure: The proportion of apoptotic cells in human neuroblastoma (SH-SY5Y; obtained from ATCC) in the presence of an autophagy activator was measured by the following test method to evaluate the apoptosis suppressing action of the autophagy activator.
# In the following examples and comparative examples, tests were performed by adding amyloid β, which is known to induce cell death called apoptosis of nerve cells due to a decrease in autophagy, to each medium.
# SH-SY5Y cells were prepared at a seeding density of 50000 cells/cm^2 and cultured for 24 hours in D-MEM medium/Ham's F-12 medium (manufactured by Sigma-Aldrich) to which 10% fetal bovine serum (manufactured by MP Biomedicals) was added. […]
# Thereafter, an aqueous solution of 10 μM Hoechst 33342 (manufactured by Sigma-Aldrich) was added to each SH-SY5Y cell from which the medium was removed, and the cells were allowed to stand at room temperature (25° C.) for 10 minutes. After removing the solution, each SH-SY5Y cell was washed with phosphate buffer (PBS, manufactured by FUJIFILM Wako Pure Chemical Corporation), and with a fluorescence microscope, the number of cells showing strong apoptosis-like Hoechst fluorescence due to chromatin aggregation (Hoechst (+) cells) was counted. […] For each example, relative values were calculated when the proportion of apoptotic cells in Reference Example 4 was set to 1.00, and the results are shown in Table 7.
# [2] = test system: mTOR gene; experiment: mTOR gene expression suppression effect in human senescent fibroblasts (quantitative real-time PCR); assay type: cell-based
# Procedure: Normal human fibroblasts (NB1RGB, RIKEN BRC Cell Bank) were cultured until confluent in D-MEM medium (manufactured by Sigma-Aldrich) to which 10% fetal bovine serum (manufactured by MP Biomedicals) was added. Thereafter, the cells were treated with 250 μM aqueous hydrogen peroxide for 2 hours, and cultured for 24 hours in D-MEM medium to which fresh 10% fetal bovine serum was added. The treatment with aqueous hydrogen peroxide and the cell culture operation were repeated three times, and the obtained fibroblasts were used as senescent fibroblasts.
# The prepared senescent fibroblasts were prepared at a seeding density of 10000 cells/cm^2 and cultured for 24 hours in D-MEM medium (manufactured by Sigma-Aldrich) to which 10% fetal bovine serum (manufactured by MP Biomedicals) was added. Next, in Example 8, the inositol derivative A dissolved in purified water was added to the medium such that the final concentration of the inositol derivative A was 10-4% (V/V). […]
# Then, using Nucleospin (registered trademark) RNA kit (manufactured by Takara Bio Inc.), RNA was extracted from senescent fibroblasts or normal human fibroblasts in each example, and cDNA was synthesized from the obtained RNA. Next, using this cDNA as a template, by quantitative real-time PCR, the expression level of mTOR gene was quantified using primers (manufactured by Takara Bio Inc.) specific to mTOR gene. […]
smiles,measurement,setting,value
"O[C@H]1[C@H](O)[C@@H](O)[C@H](O)[C@@H](O)[C@H]1O [Comparative Example 2, myo-inositol]","proportion of apoptotic cells, in words","[1]; SH-SY5Y cells with amyloid β, compared to Comparative Example 7 (purified water and amyloid β)",almost the same
same,Proportion of apoptotic cells,"[1]; SH-SY5Y cells, 30 μM amyloid β present, 48 hours, 10^−3% (V/V) inositol or inositol derivative A, with the vitamin derivative of the example where added, relative value, Reference Example 4 (purified water, no amyloid β) = 1.00",3.98
same,Relative gene expression level mTOR,"[2]; 24 hours, 10^−3% (V/V) inositol or inositol derivative A, with the vitamin derivative of the example where added, GAPDH-standardized, Comparative Example 3 (purified water) = 1.00",0.95
same,"expression level of the mTOR gene, in words",[2]; compared to Comparative Example 3 (purified water only),almost the same
